Measurements as given in patent US20110020931A1, “PROLIFERATION PROMOTING AGENT FOR NEURAL STEM CELLS” (KYOWA HAKKO KIRIN CO., LTD., priority 2008, published 2011).

Experiments:
Type in all cases: cell-based
[1] = tested on: Rat adult neural stem cell line ANSC-7 cells; test: Test Example 1: Proliferation promoting activity on neural stem cells (1), Hoechst 33342 nucleus staining fluorescence; details: 96 hours culture, nucleus-stain fluorescence, read-out: proliferation promoting activity (relative value, negative control = 100%); for activity at 0.32 µM: 0.32 μmol/L; for activity at 1 µM: 1.0 μmol/L
Protocol: Rat adult neural stem cell line ANSC-7 cells prepared by the method described in the following Reference Example 1 were suspended in DMEM/F12 medium (manufactured by Invitrogen) supplemented with N-2 additives [5 μg/mL insulin (manufactured by Sigma), 100 μg/mL bovine apotransferrin (manufactured by Sigma), 6.3 ng/mL progesterone (manufactured by Sigma), 1.6 μg/mL putrescine (manufactured by Sigma) and 5.2 ng/mL sodium selenate (manufactured by Sigma)] and an antibiotics mixed liquid [0.05 U/mL penicillin and 0.05 μg/mL streptomycin (manufactured by Invitrogen)] (to be referred to as assay medium hereinafter), at a density of 1.7×10^5 cells/mL; inoculated at 0.1 mL in a 96 well plate (manufactured by Costar) of which surface was processed with polyornithine and laminin; and cultured overnight at 37° C. under an atmosphere of 5% CO2. Thereafter, 50 μl of the culture supernatant was removed, and 50 μl of a test compound which was serially diluted with the assay medium to 2 times of the final concentration or DMSO (negative control) was added to each well. After the culturing for 96 hours, 50 μl of the culture supernatant was removed, and 50 μl of a 15% neutral buffered formalin liquid (manufactured by Wako Pure Chemical Industries, Ltd.) cooled to be 4° C. was added to each well and allowed to stand for 1 hour. Thereafter, by washing twice using PBS containing 0.3% Triton X-100 (manufactured by Nacalai Tesque) (hereinafter TBST), 50 μl of Hoechst 33342 (manufactured by Nacalai Tesque) adjusted to 3.3 μmol/L with 5% skim milk solution diluted with PBS containing 0.5% Triton X-100 was added to each well and the nucleus was stained overnight at 4° C. in the dark. After washing twice with 100 μl/well of TBST and then once with PBS and subsequently soaking in 100 μl/well of PBS, fluorescence intensity of the nucleus-stained cells was measured using a fluorometer FDSS 6000 (Hamamatsu Photonics K.K.). By regarding the measured value of well to which the cells were not inoculated as 0%, and the measured value of negative control as 100%, relative values in the test compound addition group were calculated.
(§1) After putting a 7-week-old Sprague Dawley Rat to sleep by ether anesthesia and subsequent decapitation, the skull was cut open from the parietal region to extract the brain. Under a microscope, tissues including circumventricular region were isolated from the extracted brain by using ophthalmic scissors and tweezers. The tissues including circumventricular region were cut into fragments of about 1 mm^3 using ophthalmic scissors and scalpels and then subjected to 30 minutes of digestion reaction at 37° C. in 5 mL of Hanks' buffer containing 2.5 U/mL of papain, 250 U/mL of DNase (all manufactured by Worthington, Freehold, N.J.) and 1 U/mL of a neutral protease (Dispase, manufactured by Boehringer-Mannheim Corp.) (HBSS buffer, manufactured by Invitrogen). The mixture of cells and tissues obtained by the reaction was washed three times with DMEM (manufactured by Invitrogen) containing 10% fetal bovine serum (manufactured by Hyclone) and then dissolved in the DMEM containing 10% fetal bovine serum, followed by removing the undigested materials using a nylon mesh of 10 μm.
(§2) The thus obtained cells crude extract was cultured overnight on a culture dish of 10 cm, in an incubator of 37° C. using DMEM/F12 medium (manufactured by Invitrogen) containing 10% fetal bovine serum. On the next day, the medium was replaced with DMEM/F12 containing 1% of N-2 additives (manufactured by Invitrogen) and 20 ng/mL of FGF 2 (manufactured by Pepro Tech) and the culturing was started. Once in 3 days, half of the medium was replaced with new DMEM/F12 containing 1% of N-2 additives and 20 ng/mL of FGF 2 and the culturing was continued.
When a small colony consisted of small cells was formed, it was treated with 1% trypsin for 30 seconds to 1 minute, and the cells detached were harvested. […]

[2] = tested on: Rat adult neural stem cell line ANSC-7 cells; test: Test Example 3: Proliferation promoting activity on neural stem cells (3), same manner as Test Example 2; details: 96 h; for activity at 3.2 µM: 3.2 μmol/L; for activity at 0.001 µM: 1 nmol/L; for activity at 0.01 µM: 10 nmol/L
Protocol: (§3) Rat adult neural tem cell line ANSC-7 cells prepared by the method described in the following Reference Example 1 were suspended in the assay medium at a density of 1.7×10^5 cells/mL; inoculated in 0.1 mL portion in a 96 well plate (manufactured by Costar) of which surface was processed with polyornithine and laminin; and cultured overnight at 37° C. under an atmosphere of 5% CO2. Thereafter, 50 μl of the culture supernatant was removed, and 50 μl of a test compound which was serially diluted with the assay medium to 2 times of the final concentration or DMSO (negative control) was added to each well. After the culturing for 96 hours, 10 μl per well of a viable cell counting reagent SF (manufactured by Nacalai Tesque) was added to the culture. After culturing at 37° C. for 3 hours in a 5% CO2 incubator and subsequent stirring for 1 minute, absorbance at 490 nm (control wavelength 655 nm) was measured using a microplate spectrophotometer Emax (manufactured by Molecular Device). By regarding the measured value of well to which the cells were not inoculated as 0%, and the measured value of negative control as 100%, relative values in the test compound addition group were calculated.
Each of the tests was carried out in the same manner as in Test Example 2.
as §1, §2
(§4) When a small colony consisted of small cells was formed, it was treated with 1% trypsin for 30 seconds to 1 minute, and the cells detached were harvested. The harvested cells were inoculated on a multiple well culture dish (manufactured by Fisher Scientific) which had been coated at room temperature overnight using 10 μg/mL of polyornithine (manufactured by Sigma) and at 37° C. overnight using 5 μg/mL of mouse EHS tumor-derived laminin (Becton Dickinson), and the culturing was continued.
(§5) By continuing the above-mentioned culturing, small cells having small protrusion and thickness were concentrated. The cells were used as adult neural stem cells in the above-mentioned tests (Test Examples 1 to 3).

[3] = tested on: Rat adult neural stem cell line ANSC-7 cells; test: Test Example 2: Proliferation promoting activity on neural stem cells (2), viable cell counting reagent SF absorbance; details: 96 hours culture, absorbance 490 nm, read-out: proliferation promoting activity (relative value, negative control = 100%); for activity at 0.32 µM: 0.32 μmol/L; for activity at 1 µM: 1.0 μmol/L
Protocol: as §3, §1, §2, §4, §5

[4] = same manner as Test Example 2, read-out: proliferation promoting activity (relative value, negative control = 100%)

## C=C(CCC1(C)OC2OC3CC1C21CCC2C4(C)CCC(OC(C)=O)CC4CC4OC42C31)C(C)C (stereo not shown) [Compound A1]
[1]
  activity at 0.32 µM: ≥ 160%

## C=C(CCC1(C)OC2OC3CC1C21CCC2C4(C)CCC(=O)CC4CC4OC42C31)C(C)C (stereo not shown) [Compound A2]
[1]
  activity at 0.32 µM: ≥ 160%

## CC(C)C(C)CCC1(C)OC2OC3CC1C21CCC2C4(C)CCC(O)CC4CC4OC42C31 (stereo not shown) [Compound A3]
[1]
  activity at 0.32 µM: ≥ 160%

## C=C(CCC1(C)OC2OC3CC1C21CCC2C4(C)CCC(O)CC4CCC2(O)C31)C(C)C (stereo not shown) [Compound A5]
[1]
  activity at 0.32 µM: ≥ 160%

## CC(C)C(C)/C=C/C(C)C1CCC2/C(=C/C(=O)OC3(C)CCC(O)CC3=O)C(=O)CCC21C (stereo not shown) [Compound AA]
[2]; [4]
  activity at 3.2 µM: 120%

## C=C(CCC1(C)OC2OC3CC1C21CCC2C4(C)CCC(O)CC4CC4OC42C31)C(C)C (stereo not shown) [Compound A]
[1]
  activity at 0.32 µM: ≥ 150%
[3]
  activity at 0.32 µM: ≥ 130%

## CC(C)C(C)/C=C/C(C)C1CCC2/C(=C/C(=O)OC3CCC(C)(O)C(=O)C3)C(=O)CCC21C (stereo not shown) [Compound BB]
[2]; [4]
  activity at 3.2 µM: 120%

## C=C(CCC1(C)OC2OC3CC1C21CCC2C(=CCC4CC(O)CCC42C)C31)C(C)C (stereo not shown) [Compound B]
[1]
  activity at 1 µM: ≥ 140%

## C=C(CCC(C)(O)C1CCC2C3=CCC4CC(O)CCC4(C)C3CCC21C)C(C)C (stereo not shown) [Compound C]
[1]
  activity at 0.32 µM: ≥ 150%
[3]
  activity at 0.32 µM: ≥ 130%

## C=C(CCC(=C)C1CC(O)C2C3=CCC4CC(O)CCC4(C)C3CCC12C)C(C)C (stereo not shown) [Compound D]
[1]
  activity at 1 µM: ≥ 140%
[3]
  activity at 1 µM: ≥ 130%

## C=C(CCC(C)C1CCC2C3=C(CCC21C)C1(C)CCC(O)CC1C(=O)O3)C(C)C (stereo not shown) [Compound E]
[1]
  activity at 0.32 µM: ≥ 150%
[3]
  activity at 0.32 µM: ≥ 130%

## C=C(CCC(C)C1CCC2C3=C(CCC21C)C1(C)CCC(O)CC1CC3=O)C(C)C (stereo not shown) [Compound F]
[1]
  activity at 1 µM: ≥ 140%
[3]
  activity at 1 µM: ≥ 130%

## C=C(CCC1(C)OC(=O)C23CCC4C5(C)CCC(O)CC5CC5OC54C2C(O)CC13)C(C)C (stereo not shown) [Compound H]
[3]
  activity at 1 µM: ≥ 130%

## C=C(CCC(C)(O)C1CC(O)C2C3=CCC4CC(O)CCC4(C)C3CCC21C)C(C)C (stereo not shown) [Compound J]
[3]; 3.2 μmol/L
  activity at 3.2 µM: ≥ 125%

## C=C(CCC(=C)C1CC(O)C2C3=CCC4CC(=O)CCC4(C)C3CCC12C)C(C)C (stereo not shown) [Compound K]
[3]
  activity at 1 µM: ≥ 130%

## C=C(CCC1(C)OC2OC3CC1C21CCC2C(=CC=C4CC(O)CCC42C)C31)C(C)C (stereo not shown) [Compound L]
[3]
  activity at 0.32 µM: ≥ 130%

## COC(C)(C)/C=C/c1cccc2c3c([nH]c12)C(C)(C)C1CC24CCCN2CC1(C3)NC4=O (stereo not shown) [Compound M]
[2]; read-out: proliferation promoting activity (relative value, negative control = 100%)
  activity at 0.32 µM: 120%

## CC(C)=CC(=O)c1cccc2c3c([nH]c12)C(C)(C)C1CC24CCCN2CC1(C3)NC4=O (stereo not shown) [Compound N]
[2]; 1 μmol/L, same manner as Test Example 2, read-out: proliferation promoting activity (relative value, negative control = 100%)
  activity at 1 µM: 120%

## C=C(CCC(C)C1CCC2=C3OC(=O)C4CC(O)CCC4(C)C3CCC21C)C(C)C (stereo not shown) [Compound U]
[2]; [4]
  activity at 0.001 µM: ≥ 120%

## C=C(CCC(C)C1CC=C2C3=C(CCC21C)C1(C)CCC(O)CC1C(=O)O3)C(C)C (stereo not shown) [Compound V]
[2]; [4]
  activity at 0.001 µM: ≥ 120%

## C=C(CCC(C)C1CCC2C3C(=O)CC4CC(O)CCC4(C)C3CCC12C)C(C)C (stereo not shown) [Compound W]
[2]; [4]
  activity at 0.01 µM: ≥ 120%

## C=C(/C=C/C(C)C1CCC2C3C(=O)CC4CC(O)CCC4(C)C3CCC12C)C(C)C (stereo not shown) [Compound X]
[2]; [4]
  activity at 0.01 µM: ≥ 120%

## C=C(CCC(C)(O)C1CC(O)C2=C3C(O)CC4CC(O)CCC4(C)C3CCC21C)C(C)C (stereo not shown) [Compound Y]
[2]; [4]
  activity at 3.2 µM: 120%
